# Measurements as given in patent publication EP4737449A1 (Changchun Genescience Pharmaceutical Co., Ltd., priority 2023, dated 2025).
# Target: T1, p53-Y220C mutant protein (Homo sapiens, UniProt P04637, Y220C)
# T1 construct: The recombinant Y220C p53 DBD protein with his-tag
# Experiment: In vitro DNA binding activity assay (TR-FRET)
# Assay type: biochemical
# Settings: concentration required to increase the binding activity of protein to DNA by 50%
# Protocol: The activity of the compound to modulate the binding of the p53-Y220C mutant protein to DNA was detected using TR-FREt (Time-Resolved Fluorescence Resonance Energy Transfer). The recombinant Y220C p53 DBD protein with his-tag and the DNA sequence with biotin label were prepared firstly. Donor Eu(Europium)-SA(Streptavidin) can be bound to the DNA sequence through biotin, receptor for his antibody attached to alphaphycocyanin(APC, allophycocyanin), and his antibody can be bound to the Y220C p53 DBD protein with his-tag. When exposed to an excitation light with a wavelength of 340 nm, the donor Eu(Europium)-SA(Streptavidin) can emit fluorescence with a wavelength of 615 nm. If the donor and the receptor are close to each other, the donor will transfer part of the energy to the receptor and produce fluorescence with a wavelength of 665 nm. […] If there is no interaction, only 615 nm fluorescence is produced. • 1) Experimental steps • a. Adding 4 µL of dilute compound solution to each well of a 384-well microplate; • a. Adding 4 µL of 4X P53 working solution to each well of the 384-well microplate; • c. Sealing the 384-well microplate and equilibrating the system at room temperature for 60 min; • d. Adding 4 µl of biotin DNA solution to the 384-well microplate; • e. Adding 4 µl of 4X test solution (MAb Anti-6His-Eu and streptavidin-d2) to each well of the 384-well microplate; • f. Incubating overnight in the dark; and • g. Reading data of 665 nm and 615 nm wavelengths on the BMG multifunctional microplate reader. • 2) Data analysis • a. Calculating the ratio for each well (Ratio665 nm/615 nm-Ratiobackground); • b. Calculating the activity percentage (%activity) as follows: C = (Ave_Ac−Ave_Ba)/(Ave_Dc−Ave_Bd) [formula] R data = (A−Ave_Ba−CD)/(D−Ave_Bd)*(Ave_Dc−Ave_Bd) [formula] % Activity = R data/Ave_VC*100 [formula] • A: Fluorescence intensity of the sample at 665 nm; D: Fluorescence intensity of the sample at 615 nm; • Ba: Background fluorescence intensity of the culture plate at 665 nm; Bd: Background fluorescence intensity of the culture plate at 615 nm; • Dc: Background fluorescence intensity of HIS-E at 615 nm; Ac: Background fluorescence intensity of streptavidin-d2 at 665 nm); and • c. Calculating SC150 and plotting dose-effect curve
# Compared to the absence of the compound of the present invention, the activation percentage of binding of the p53 mutant protein to DNA in the presence of the compound of the present invention is expressed as SC150, which indicates the concentration of the compound required to increase the DNA binding activity of the p53 mutant protein by 50%. The SC150 is calculated using Prism™.
row,SMILES,SC150 [nM]
1,CN1CC[C@@H](Nc2cccc3c(CC(F)(F)F)c(C#CCNC(=O)c4cnn(C5(F)CC5)c4)nn23)[C@@H](F)C1 [Compound 304],13
2,"CNc1c(C(=O)NCC#Cc2nn3c(N[C@@H]4CCN(C)C[C@@H]4F)cccc3c2CC(F)(F)F)cnn1C(C)(C)C [Compound 307, 1-(tert-butyl)-N-[3-(7-{[(3S,4R)-3-fluoro-1-methylpiperidin-4-yl]amino}-3-(2,2,2-trifluoroethyl)pyrazolo [1,5-a]pyridin-2-yl)prop-2-yn-1-yl]-5-(methylamino)-1H-pyrazole-4-carboxamide]",32
3,"CN1CC[C@@H](Nc2cccc3c(CC(F)(F)F)c(C#CCNC(=O)c4cn(C)c(C(F)F)n4)nn23)[C@@H](F)C1 [Compound 309, 2-difluoromethyl-N-[3-(7-{[(3S,4R)-3-fluoro-1-methylpiperidin-4-yl]amino}-3-(2,2,2-trifluoroethyl)pyrazolo[1,5-a]pyridin-2-yl)prop-2-yn-1-yl]-1-methyl-1H-imidazole-4-carboxamide]",74
4,"CN1CC[C@@H](Nc2cccc3c(CC(F)(F)F)c(C#CCNC(=O)c4cnn(CCO)c4)nn23)[C@@H](F)C1 [Compound 310, N-[3-(7-{[(3S,4R)-3-fluoro-1-methylpiperidin-4-yl]amino}-3-(2,2,2-trifluoroethyl)pyrazolo[1,5-a]pyridin-2-yl)prop-2-yn-1-yl]-1-(2-hydroxyethyl)-1H-pyrazole-4-carboxamide]",11
5,"CC(C)c1cc(C(=O)NCC#Cc2nn3c(N[C@@H]4CCN(C)C[C@@H]4F)cccc3c2CC(F)(F)F)no1 [Compound 321, N-[3-(7-{[(3S,4R)-3-fluoro-1-methylpiperidin-4-yl]amino}-3-(2,2,2-trifluoroethyl)pyrazolo[1,5-a]pyridin-2-yl)prop-2-yn-1-yl]-5-isopropylisoxazole-3-carboxamide]",99
6,"CC(C)c1cc(C(=O)NCC#Cc2nn3c(N[C@@H]4CCN(C)C[C@@H]4F)cccc3c2CC(F)(F)F)on1 [Compound 323, N-[3-(7-{[(3S,4R)-3-fluoro-1-methylpiperidin-4-yl]amino}-3-(2,2,2-trifluoroethyl)pyrazolo[1,5-a]pyridin-2-yl)prop-2-yn-1-yl]-3-isopropylisoxazole-5-carboxamide]",57
7,"CN1CC[C@@H](Nc2cccc3c(CC(F)(F)F)c(C#CCNC(=O)c4ncn(C)n4)nn23)[C@@H](F)C1 [Compound 324, N-[3-(7-{[(3S,4R)-3-fluoro-1-methylpiperidin-4-yl]amino}-3-(2,2,2-trifluoroethyl)pyrazolo[1,5-a]pyridin-2-yl)prop-2-yn-1-yl]-1-methyl-1H-1,2,4-triazole-3-carboxamide]",29
8,"CN1CC[C@@H](Nc2cccc3c(CC(F)(F)F)c(C#CCNC(=O)c4cnn(C)n4)nn23)[C@@H](F)C1 [Compound 325, N-[3-(7-{[(3S,4R)-3-fluoro-1-methylpiperidin-4-yl]amino}-3-(2,2,2-trifluoroethyl)pyrazolo[1,5-a]pyridin-2-yl)prop-2-yn-1-yl]-2-methyl-2H-1,2,3-triazole-4-carboxamide]",35
9,"CN1CC[C@@H](Nc2cccc3c(CC(F)(F)F)c(C#CCNC(=O)c4cnn(C)c4F)nn23)[C@@H](F)C1 [Compound 327, 5-fluoro-N-[3-(7-{[(3S,4R)-3-fluoro-1-methylpiperidin-4-yl]amino}-3-(2,2,2-trifluoroethyl)pyrazolo[1,5-a]pyridin-2-yl)prop-2-yn-1-yl]-1-methyl-1H-pyrazole-4-carboxamide]",27
10,"CCn1cc(C(=O)NCC#Cc2nn3c(N[C@@H]4CCN(C)C[C@@H]4F)cccc3c2CC(F)(F)F)c(N)n1 [Compound 329, 3-amino-1-ethyl-N-(3-(7-{[(3S,4R)-3-fluoro-1-methylpiperidin-4-yl]amino}-3-(2,2,2-trifluoroethyl)pyrazolo[1,5-a]pyridin-2-yl)prop-2-yn-1-yl]-1H-pyrazole-4-carboxamide]",9
11,"CN1CC[C@@H](Nc2cccc3c(CC(F)(F)F)c(C#CCNC(=O)c4cccc(C(C)(C)O)c4)nn23)[C@@H](F)C1 [Compound 334, N-[3-(7-{[(3S,4R)-3-fluoro-1-methylpiperidin-4-yl]amino}-3-(2,2,2-trifluoroethyl)pyrazolo[1,5-a]pyridin-2-yl)prop-2-yn-1-yl)-3-(2-hydroxyprop-2-yl)benzamide]",33
12,"COc1cncc(C(=O)NCC#Cc2nn3c(N[C@@H]4CCN(C)C[C@@H]4F)cccc3c2CC(F)(F)F)c1 [Compound 335, N-[3-(7-{[(3S,4R)-3-fluoro-1-methylpiperidin-4-yl]amino}-3-(2,2,2-trifluoroethyl)pyrazolo[1,5-a]pyridin-2-yl)prop-2-yn-1-yl]-5-methoxynicotinamide]",41
13,"CCc1cc(C(=O)NCC#Cc2nn3c(N[C@@H]4CCN(C)C[C@@H]4F)cccc3c2CC(F)(F)F)cs1 [Compound 336, 5-ethyl-N-[3-(7-{[(3S,4R)-3-fluoro-1-methylpiperidin-4-yl]amino}-3-(2,2,2-trifluoroethyl)pyrazolo[1,5-a]pyridin-2-yl)prop-2-yn-1-yl]thiophene-3-carboxamide]",68
14,"CN1CC[C@@H](Nc2cccc3c(CC(F)(F)F)c(C#CCNC(=O)c4cccc(F)c4)nn23)[C@@H](F)C1 [Compound 339, 3-fluoro-N-[3-(7-{[(3S,4R)-3-fluoro-1-methylpiperidin-4-yl]amino}-3-(2,2,2-trifluoroethyl)pyrazolo[1,5-a]pyridin-2-yl)prop-2-yn-1-yl]benzamide]",92
15,CCn1ncc(C(=O)NCC#Cc2nn3c(N[C@@H]4CCN(C)C[C@@H]4F)cccc3c2CC(F)(F)F)c1Cl [Compound 343],25
16,CCn1cc(C(=O)NCC#Cc2nn3c(N[C@@H]4CCN(C)C[C@@H]4F)cccc3c2CC(F)(F)F)c(Cl)n1 [Compound 344],56
17,"CN1CC[C@@H](Nc2cccc3c(CC(F)(F)F)c(C#CCNC(=O)c4cnn(C(C)(C)C5CC5)c4)nn23)[C@@H](F)C1 [Compound 346, 1-(2-cyclopropylprop-2-yl)-N-[3-(7-{[(3S,4R)-3-fluoro-1-methylpiperidin-4-yl]amino}-3-(2,2,2-trifluoroethyl)pyrazolo[1,5-a]pyridin-2-yl)prop-2-yn-1-yl]-1H-pyrazole-4-carboxamide]",18
18,"CCc1c(C#CCNC(=O)c2cnn(C(C)(C)C)c2N)nn2c(N[C@@H]3CCN(C)C[C@@H]3F)cccc12 [Compound 348, 5-amino-1-tert-butyl-N-[3-(3-ethyl-7-{[(3S,4R)-3-fluoro-1-methylpiperidin-4-yl]amino}-pyrazolo[1,5-a]pyridin-2-yl)prop-2-yn-1-yl]-1H-pyrazole-4-carboxamide]",28
19,CN1CC[C@@H](Nc2cccc3c(CC(F)(F)F)c(C#CCNC(=O)c4cn(CC5CCCC5)nc4N)nn23)[C@@H](F)C1 [Compound 349],12
20,"CN1CC[C@@H](Nc2cccc3c(CC(F)(F)F)c(C#CCNC(=O)c4cn(C5CC5)nc4N)nn23)[C@@H](F)C1 [Compound 350, 3-amino-N-[3-(7-{[(3S,4R)-3-fluoro-1-methylpiperidin-4-yl]amino}-3-(2,2,2-trifluoroethyl)pyrazolo[1,5-a]pyridin-2-yl)prop-2-yn-1-yl]-1-(cyclopropyl)-1H-pyrazole-4-carboxamide]",13
21,CN1CC[C@@H](Nc2cccc3c(CC(F)(F)F)c(C#CCNC(=O)c4cn(CC(C)(C)C)nc4N)nn23)[C@@H](F)C1 [Compound 352],13
